In patent US6727284B2 (priority 1997, dated 2004):
Entries after “also recorded” stand apart in the source; their conditions may differ.

Legend:
[1] = cited from earlier work
[2] = Side-effects of dichloroacetate in patients; type: in vivo, human
Text: Higher dosages are permitted.

[3] = Plasma DCA levels by HPLC in pediatric patients given bolus plus 24 h infusion after cardiopulmonary bypass; type: in vivo, human; conditions: bolus 100 mg/kg into proximal aorta, then infusion 12.5 mg/kg/hr for 24 hours, therapeutic range 0.2-1 mM, FIG. 1
Protocol: This example describes the use of dichloroacetate administered in a bolus followed by infusion for 24 hrs in pediatric patients after cardiopulmonary bypass.
DCA, in a bolus of 100 mg/kg of 10 mg/ml solution ([…] bolus) is injected into the proximal aorta immediately prior to discontinuing the aortic cross-clamp. Immediately thereafter, an infusion of DCA at 12.5 mg/kg/hr is initiated and run for 24 hours or longer. Based on the pharmacokinetics of DCA, this dosage regiment is designed to continuous maintain plasma levels of DCA in the therapeutic range of [0.2-1 mM]—in contrast to transient therapeutic levels.
Blood samples are collected from the indwelling lines of patients in citrate-containing tubes. These samples are centrifuged to separate the plasma and frozen. The frozen samples are later analyzed for DCA concentration by using a high performance liquid chromatography technique (HPLC). See generally Thannikkuto et al., “Dichloracetate (DCA) stimulates pyruvate dehydrogenase complex (PDC) activity in hearts of patients undergoing coronary artery bypass grafting (CABG)” Can. J. Cardiol. 10(suppl. C):130C (1994). Briefly, the analysis was performed on a lonoSpher A (250×4.6 mm L X ID) column accompanied by a guard column AX. Both of the columns were purchased from Chrompack Canada. The mobile phase used was 10^−3 M pyromellitate buffer (pH 3.8-4.0) at a flow rate of […]. […]

## O=C(O)C(Cl)Cl [dichloroacetate]
[1]; in vivo
  half-life: approximately 40 minutes
[1]; single bolus administration
  time blood levels stay in the therapeutic range: less than one hour
[2]
  side-effects: does not have significant sideeffects; also recorded: some patients experience mild drowsiness
[3]
  patient blood (plasma) levels of dichloroacetate: continuously maintained patient blood levels of dichloroacetate in the therapeutic range
[3]; listed as dichloro acetate
  patient blood (plasma) levels of dichloroacetate: maintained. at high (and therefore therapeutic) levels over a 24 hour period
